# “And” between values parts separate entries of the source, which are not always exact repeats. Identical values can stand only once. Toxic doses and inconclusive results are not listed.
# Tested on: BDF1 mice, P388 leukemia ip, median survival T/C
# Assay: NCI In Vivo Anticancer Drug Screen. Data for tumor model P388 Leukemia (intraperitoneal) in B6D2F1 (BDF1) mice
# Conditions: endpoint: median survival time, higher = longer survival
# Procedure, shortened: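 Compound-treated tumour-bearing mice were compared with vehicle-treated controls. Survival was recorded, and the value is the treated-group measurement divided by the control-group measurement (T/C).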
# [1] = dose: 100.0 mg/kg/injection, schedule: Q01DX009 (ip), vehicle: Klucel (hydroxypropylcellulose) (HPC)
# [2] = dose: 150.0 mg/kg/injection, schedule: Q01DX009 (ip), vehicle: Klucel (hydroxypropylcellulose) (HPC)
# [3] = dose: 100.0 mg/kg/injection, schedule: Q01DX009 (ip), vehicle: saline with Tween-80
# [4] = dose: 200.0 mg/kg/injection, schedule: Q01DX009 (ip), vehicle: saline with Tween-80
# [5] = dose: 12.5 mg/kg/injection, schedule: Q04DX003 (ip), vehicle: saline with Tween-80
# [6] = dose: 25.0 mg/kg/injection, schedule: Q04DX003 (ip), vehicle: saline with Tween-80
# [7] = dose: 50.0 mg/kg/injection, schedule: Q04DX003 (ip), vehicle: saline with Tween-80
# [8] = dose: 50.0 mg/kg/injection, schedule: Q01DX009 (ip), vehicle: saline with Tween-80
# [9] = dose: 6.25 mg/kg/injection, schedule: Q01DX009 (ip), vehicle: saline with Tween-80
# [10] = dose: 12.5 mg/kg/injection, schedule: Q01DX009 (ip), vehicle: saline with Tween-80
# [11] = dose: 25.0 mg/kg/injection, schedule: Q01DX009 (ip), vehicle: saline with Tween-80
# [12] = dose: 100.0 mg/kg/injection, schedule: Q01DX001 (ip), vehicle: saline with Tween-80
# [13] = dose: 200.0 mg/kg/injection, schedule: Q01DX001 (ip), vehicle: saline with Tween-80
# [14] = dose: 400.0 mg/kg/injection, schedule: Q01DX009 (ip), vehicle: saline with Tween-80
# [15] = dose: 25.0 mg/kg/injection, schedule: Q04DX003 (ip), vehicle: saline
# [16] = dose: 50.0 mg/kg/injection, schedule: Q04DX003 (ip), vehicle: saline
# [17] = dose: 50.0 mg/kg/injection, schedule: Q01DX009 (ip), vehicle: Klucel (hydroxypropylcellulose) (HPC)
# [18] = dose: 100.0 mg/kg/injection, schedule: Q04DX002 (ip), vehicle: saline with Tween-80
# [19] = dose: 50.0 mg/kg/injection, schedule: Q01DX005 (ip), vehicle: saline with Tween-80
# [20] = dose: 100.0 mg/kg/injection, schedule: Q01DX005 (ip), vehicle: saline with Tween-80
# [21] = dose: 200.0 mg/kg/injection, schedule: Q01DX005 (ip), vehicle: saline with Tween-80
smiles,measurement,setting,value
O=C(CCCl)N1CCN(C(=O)CCCl)CC1,T/C,"dose: 66.0 mg/kg/injection, schedule: Q01DX009 (ip), vehicle: Klucel (hydroxypropylcellulose) (HPC)",104 % of control
same,T/C,[1],90 % of control
same,T/C,"dose: 100.0 mg/kg/injection, schedule: Q04DX003 (ip), vehicle: saline sonified",116 % of control
same,T/C,[2],113 % of control
same,T/C,"dose: 200.0 mg/kg/injection, schedule: Q04DX003 (ip), vehicle: saline sonified",108 % of control
same,T/C,"dose: 400.0 mg/kg/injection, schedule: Q01DX009 (ip), vehicle: Klucel (hydroxypropylcellulose) (HPC)",95 % of control
same,T/C,"dose: 400.0 mg/kg/injection, schedule: Q04DX003 (ip), vehicle: saline sonified",120 % of control
O=C(O)c1cc(-c2cccc3ccccc23)nc2cc3ccccc3cc12,T/C,[3],99 % of control
same,T/C,[4],108 % of control
O=[N+]([O-])/C=C/c1cccc(F)c1,T/C,[5],107 % of control
same,T/C,[6],98 % of control
same,T/C,[7],93 % of control
same,T/C,"dose: 100.0 mg/kg/injection, schedule: Q04DX003 (ip), vehicle: saline with Tween-80",87 % of control
CN(C)CCNCc1c[nH]c(=O)[nH]c1=O,T/C,[8],97 % of control
same,T/C,[3],94 % of control
same,T/C,[4],93 % of control
CSc1nc2n(Cc3c[nH]c(=O)[nH]c3=O)cc(C)cc-2c(=O)n1,T/C,[9],101 % of control
same,T/C,[10],102 % of control
same,T/C,[11],95 % of control
same,T/C,[8],93 % of control
same,T/C,[12],113 % of control
same,T/C,[13],106 % of control
COc1ccc([C@@H]2c3cc4c(cc3C[C@H]3COC(=O)[C@@H]32)OCO4)cc1OC,T/C,[9],104 % of control
same,T/C,[10],116 % of control
same,T/C,[11],121 % of control
COC(C(=O)C(O)C(C)O)C1Cc2cc3cc(OC4CC(OC5CC(O)C(O)C(C)O5)C(O)C(C)O4)c(C)c(O)c3c(O)c2C(=O)C1OC1CC(OC2CC(O)C(OC3CC(C)(O)C(O)C(C)O3)C(C)O2)C(O)C(C)O1 (stereo not drawn),T/C,"dose: 0.03 mg/kg/injection, schedule: Q01DX009 (ip), vehicle: saline",101 % of control
same,T/C,"dose: 0.06 mg/kg/injection, schedule: Q01DX009 (ip), vehicle: saline",106 % of control
same,T/C,"dose: 0.13 mg/kg/injection, schedule: Q04DX003 (ip), vehicle: saline",98 % of control
same,T/C,"dose: 0.25 mg/kg/injection, schedule: Q01DX009 (ip), vehicle: saline",150 % of control
same,T/C,"dose: 0.25 mg/kg/injection, schedule: Q04DX003 (ip), vehicle: saline",107 % of control
same,T/C,"dose: 0.5 mg/kg/injection, schedule: Q01DX009 (ip), vehicle: saline",170 % of control
same,T/C,"dose: 0.5 mg/kg/injection, schedule: Q04DX003 (ip), vehicle: saline",101 % of control
same,T/C,"dose: 1.0 mg/kg/injection, schedule: Q01DX009 (ip), vehicle: saline",120 % of control
CN(C)c1ncnc2nsnc12,T/C,"dose: 75.0 mg/kg/injection, schedule: Q04DX003 (ip), vehicle: saline with Tween-80",95 % of control
COc1ccc(CCNC(=O)/C=C\C(=O)O)cc1OC,T/C,[3],95 % of control
same,T/C,[4],95 % of control
same,T/C,[14],100 % of control
CCN(CC)CCNC1=CC(=S)NC(C)(C)C1,T/C,[11],101 % of control
same,T/C,[8],89 % of control and 111 % of control
same,T/C,[3],100 % of control
same,T/C,[4],88 % of control and 117 % of control
CCOC(=O)C[P+](c1ccccc1)(c1ccccc1)c1ccccc1,T/C,"dose: 12.5 mg/kg/injection, schedule: Q04DX003 (ip), vehicle: saline",102 % of control
same,T/C,[15],102 % of control
same,T/C,[16],96 % of control
O=C(CI)Nc1ccc(Br)cc1,T/C,"dose: 8.75 mg/kg/injection, schedule: Q01DX009 (ip), vehicle: Klucel (hydroxypropylcellulose) (HPC)",104 % of control
same,T/C,"dose: 17.5 mg/kg/injection, schedule: Q01DX009 (ip), vehicle: Klucel (hydroxypropylcellulose) (HPC)",104 % of control
same,T/C,"dose: 26.25 mg/kg/injection, schedule: Q04DX003 (ip), vehicle: Klucel (hydroxypropylcellulose) (HPC)",90 % of control
same,T/C,"dose: 35.0 mg/kg/injection, schedule: Q01DX009 (ip), vehicle: Klucel (hydroxypropylcellulose) (HPC)",104 % of control
CNC(=O)Cc1[nH]ccc1C(=O)O,T/C,[12],106 % of control
same,T/C,[13],103 % of control
same,T/C,"dose: 400.0 mg/kg/injection, schedule: Q01DX001 (ip), vehicle: saline with Tween-80",114 % of control
NCc1cc(=O)[nH]o1,T/C,"dose: 2.5 mg/kg/injection, schedule: Q01DX005 (ip), vehicle: saline",98 % of control
same,T/C,"dose: 5.0 mg/kg/injection, schedule: Q01DX005 (ip), vehicle: saline",106 % of control
O=S1(=O)OCc2ccccc21,T/C,[17],108 % of control
same,T/C,"dose: 50.0 mg/kg/injection, schedule: Q04DX003 (ip), vehicle: Klucel (hydroxypropylcellulose) (HPC)",86 % of control
same,T/C,[1],91 % of control
same,T/C,"dose: 100.0 mg/kg/injection, schedule: Q04DX003 (ip), vehicle: Klucel (hydroxypropylcellulose) (HPC)",100 % of control and 104 % of control
same,T/C,"dose: 200.0 mg/kg/injection, schedule: Q04DX003 (ip), vehicle: Klucel (hydroxypropylcellulose) (HPC)",92 % of control and 95 % of control
Cc1c(NC(=O)Nc2ccccc2F)c(=O)n(-c2ccccc2)n1C,T/C,[17],100 % of control
same,T/C,[1],90 % of control
same,T/C,"dose: 200.0 mg/kg/injection, schedule: Q01DX009 (ip), vehicle: Klucel (hydroxypropylcellulose) (HPC)",95 % of control
CC1CCCN2C(=O)CN(N3CCOCC3)CC(=O)N12 (stereo not drawn),T/C,[18],121 % of control
O=C(CC(=O)Oc1ccc(Cl)cc1Cl)Oc1ccc(Cl)cc1Cl,T/C,[3],100 % of control
same,T/C,[4],100 % of control
same,T/C,[14],100 % of control
CCC1C/C(=C2/NC3CCCCC3NC2=O)C(=O)O1 (stereo not drawn),T/C,"dose: 25.0 mg/kg/injection, schedule: Q04DX002 (ip), vehicle: saline with Tween-80",101 % of control
same,T/C,"dose: 50.0 mg/kg/injection, schedule: Q04DX002 (ip), vehicle: saline with Tween-80",98 % of control
same,T/C,[18],88 % of control
Cc1ccc(S(=O)(=O)/N=C/NN(C)C)cc1,T/C,[8],97 % of control
same,T/C,[3],112 % of control
same,T/C,[4],98 % of control
O=S1(=O)C(C(O)(c2ccccc2)c2ccccc2)CCCN1c1ccccc1 (stereo not drawn),T/C,[8],100 % of control
same,T/C,[3],91 % of control
same,T/C,[4],97 % of control
COC(=O)c1c2ccccc2cn1Cc1ccccc1,T/C,[11],89 % of control
same,T/C,[8],90 % of control and 93 % of control
same,T/C,[3],100 % of control
same,T/C,[4],100 % of control
Cc1cc(Cl)ccc1NC(=O)c1ccc(Cl)cc1,T/C,"dose: 75.0 mg/kg/injection, schedule: Q01DX009 (ip), vehicle: Klucel (hydroxypropylcellulose) (HPC)",113 % of control
same,T/C,[2],95 % of control
same,T/C,"dose: 300.0 mg/kg/injection, schedule: Q01DX009 (ip), vehicle: Klucel (hydroxypropylcellulose) (HPC)",100 % of control
CC(C)C([NH-])=O.CC(C)C([NH-])=O.[Cl][Pt+2][Cl],T/C,"dose: 3.12 mg/kg/injection, schedule: Q01DX009 (ip), vehicle: saline",93 % of control
same,T/C,"dose: 6.25 mg/kg/injection, schedule: Q01DX009 (ip), vehicle: saline",101 % of control and 118 % of control
same,T/C,"dose: 12.5 mg/kg/injection, schedule: Q01DX009 (ip), vehicle: saline",87 % of control and 117 % of control
same,T/C,"dose: 25.0 mg/kg/injection, schedule: Q01DX009 (ip), vehicle: saline",87 % of control and 112 % of control and 123 % of control
same,T/C,[15],118 % of control
same,T/C,"dose: 50.0 mg/kg/injection, schedule: Q01DX009 (ip), vehicle: saline",95 % of control
same,T/C,[16],116 % of control
same,T/C,"dose: 100.0 mg/kg/injection, schedule: Q01DX009 (ip), vehicle: saline",93 % of control and 112 % of control
same,T/C,"dose: 100.0 mg/kg/injection, schedule: Q04DX003 (ip), vehicle: saline",114 % of control
CCC(C)C(O)C(C(=O)O)C1CCCCC1 (stereo not drawn),T/C,[19],100 % of control
same,T/C,[20],95 % of control
same,T/C,[21],86 % of control
Cc1cc(CC(Cl)(C(F)(F)F)C(F)(F)F)cc(CC(Cl)(C(F)(F)F)C(F)(F)F)n1,T/C,[9],110 % of control
same,T/C,[10],105 % of control
same,T/C,[5],90 % of control
same,T/C,[11],110 % of control
same,T/C,[6],90 % of control
same,T/C,[7],113 % of control
O=C1c2ccccc2C(=O)c2c(NCCOCCO)ccc(NCCOCCO)c21,T/C,"dose: 25.0 mg/kg/injection, schedule: Q01DX005 (ip), vehicle: saline with Tween-80",98 % of control
same,T/C,[19],94 % of control
same,T/C,[20],90 % of control
same,T/C,[21],102 % of control

# From PubChem BioAssay AID328 (DTP/NCI, 2004)
